According to patent US20140088052A1, “CHALCONE DERIVATIVES AS NRF2 ACTIVATORS” (THE JOHNS HOPKINS UNIVERSITY, priority 2011, published 2014):

Key:
Nrf2 [1] = experiment: In vivo potency to activate Nrf2: GCLM and NQO1 expression in mouse small intestine; design: species or system mice (C57BL/6); details: mice, single dose 50 mg/kg by gavage, 24 h
Description: Mice (n=4) were fed with vehicle (DCP-10% DMSO+10% Cremophor+80% phosphate buffered saline) or chalcone derivatives or sulforaphane (50 mg/kg body weight) by gavage, and the small intestines were harvested 24 hours later. The expression of Nrf2-regulated genes GCLM and NQO1 was analyzed in the tissues by qRT-PCR as a surrogate marker of Nrf2 activity. β-actin was used for normalization. Data are representative of three independent experiments. Values shown are mean±SD of triplicate wells (P≦0.05);
The potency of the 8 lead chalcones identified in the in vitro screening to activate Nrf2 pathway were evaluated in mouse models. First, various formulations to dissolve the compounds were evaluated, and the DCP (10% DMSO+10% Cremophor EL+80% phosphate buffered saline) formulation offered the maximum solubility for delivery of these compounds by oral route. Mice (C57BL/6) were administrated with a single dose of vehicle or test compound(s) or sulforaphane as the positive control at a dose of 50 mg/kg body weight by gavage and small intestines were harvested 24 h later. The expression of Nrf2-regulated genes GCLM and NQO1 was analyzed in the tissue by qRT-PCR. All the eight compounds tested increased the expression of GCLM and NQO1 in small intestine. […] The expression of GCLM and NQO1 in the small intestine of mice treated with 2b was 6-fold and 10-fold higher compared to vehicle, respectively. Similarly, the expression of GCLM and NQO1 in the small intestine treated with 2b was 3-fold and 5-fold higher compared to sulforaphane, respectively.
All experiments in mice were performed in accordance with the standards established by the U.S. Animal Welfare Acts, set forth in NIH guidelines and the Policy and Procedures Manual of the Johns Hopkins University Animal Care and Use Committee. C57BL/6 mice (male, 7 weeks) were maintained on AIN 76A diet (Harlan Tekland, Madison, Wis.) and water ad libitum and housed at a temperature (range, 20-23° C.) under 12 h light/dark cycles. The mice were treated with chalcone analogs (50 mg/kg body weight) or vehicle or sulforaphane as a positive control by gavage. After 24 h treatment, the small intestines were harvested and stored at −80° C. until analysis.
(§1) Total RNA was extracted from cells/tissue using Qiagen RNeasy kit (Qiagen Corporation, Valencia, Calif.) and reverse transcription was performed by using random hexamers and MultiScribe reverse transcriptase according to the manufacturer's recommendations (Applied Biosystems, Foster City, Calif., USA). Quantitative real-time RT-PCR analyses of Nrf2, NQO1, HO1, and GCLM were performed by using Assay-on-Demand primers and probe sets from Applied Biosystems. Assays were performed using the ABI 7000 Taqman system (Applied Biosystems, Foster City, Calif.). β-actin was used for normalization.

Nrf2 [2] = experiment: Concentration and time-course studies of Nrf2-driven antioxidant genes in Beas-2B cells; assay type: cell-based, human
Description: as §1, with “The expression of Nrf2-regulated genes GCLM, HO1, and NQO1 was analyzed in the tissues by qRT-PCT as a surrogate marker of Nrf2 activity. β-actin was used for normalization. Data are representative of three independent experiments. […] The expression of Nrf2-regulated genes GCLM, HO1, and NQO1 was analyzed in the tissues by aRT-PCR. β-actin was used for normalization. Data are representative of three independent experiments. Values shown are mean±SD of triplicate wells (P≦0.05); […] […] Total” for “Total”

Nrf2 [3] = experiment: Nrf2-regulated gene expression with or without N-acetyl-cysteine in Beas-2B cells; assay type: cell-based, human; details: 10 μM with NAC 10 mM, 24 h
Description: Cells were harvested 24 h after the treatment and the Nrf2-driven expression of NQO1, HO-1, and GCLM was quantified. β-actin was used for normalization. Data are representative of three independent experiments. Values shown are mean±SD of triplicate wells (P≦0.05);
The activation of Nrf2 by various electrophiles and compounds that are Michael acceptors is attributed to changes in ROS production and or redox environment and or direct cysteine modification in Keap1. Nguyen, T., et al., The Nrf2-antioxidant response element signaling pathway and its activation by oxidative stress. J. Biol. Chem. 2009, 284, 13291-13295; McMahon, M., et al., Keap1 perceives stress via three sensors for the endogenous signaling molecules nitric oxide, zinc, and alkenals. Proc. Natl. Acad. Sci. U.S.A. 2010, 107, 18838-18843. Whether 2b activates Nrf2 by generating ROS or redox changes also was examined.

[4] = system: mice subjected to total body irradiation (TBI); experiment: Hematopoietic recovery after total body irradiation; assay type: in vivo
Description: At indicated time periods, a cohort of mice was sacrificed. Peripheral blood was collected by heart puncture at the indicated days and differential blood cell count was analyzed using Hemavet 950FS(P<0.05, n=3 per group). Femur bones were fixed, decalcified sectioned along the sagittal plan and stained with hematoxylin and eosin for analyzing marrow cellularity.

Nrf2 [5] = experiment: Pharmacodynamic markers of Nrf2 activity (NQO1, HO-1, GCLM) in irradiated mice; assay type: in vivo; details: irradiated (6.9Gy) mice, day 12, compared to vehicle
Description: NQO1, HO-1 and GCLM levels were analyzed in bone marrow (FIG. 12A), lung (FIG. 12B) and small intestine (FIG. 12C) harvested at day 12 from irradiated (6.9Gy) mice treated with vehicle or drug.

[6] = system: chemotherapy-induced neutropenia; experiment: Cyclophosphamide-induced reversible neutropenia in mice; assay type: in vivo; details: cyclophosphamide i.p. day 0 and day 5, treatment every 48 h, compared to vehicle
Description: At indicated time periods, a cohort of mice was sacrificed. Peripheral blood was collected and differential blood cell count was analyzed using a Hemavet 950S.

OVA-induced asthma = OVA-induced asthma mouse model; assay type: in vivo; design: dose or concentration left out as unconfirmed; details: mice, every other day during sensitization and challenge, prophylactic mode
Description: Mice were sensitized by intraperitoneal injection (day 0, day 14), and challenged intranasally, with OVA (day 21 to day 24). […] 24 h after the last dose of OVA challenge, airway inflammation (FIG. 16A) and airway hyperresponsiveness (AHR) (FIG. 16B) were assessed.

[7] = Beas-2B cells, 10 μM, 6 h after treatment

Q: Which results are given for `COc1ccccc1C(=O)/C=C/c1ccccc1C(F)(F)F` [Compound 2b, (E)-1-(2-methoxyphenyl)-3-(2-(trifluoromethyl)phenyl)prop-2-en-1-one]?
A: expression of GCLM in the small intestine, compared to sulforaphane (Nrf2 [1]): 3 fold; expression of GCLM in the small intestine, compared to vehicle (Nrf2 [1]): 6 fold; expression of NQO1 in the small intestine, compared to sulforaphane (Nrf2 [1]): 5 fold; expression of NQO1 in the small intestine, compared to vehicle (Nrf2 [1]): 10 fold; expression of GCLM and NQO1 in small intestine (Nrf2 activity) (Nrf2 [1]; in words): most potent inducer of Nrf2 activity; expression of HO-1 compared to sulforaphane (Nrf2 [2]; Beas-2B cells, 10 μM): 6 fold; expression of NQO1 over time (Nrf2 [2]; Beas-2B cells, 10 μM, 6, 12, 24 and 48 h): highest at 24 h and remained significantly elevated even at 48 h; highest induction of GCLM (Nrf2 [2]; [7]): approximately 7 fold; highest induction of HO-1 (Nrf2 [2]; [7]): approximately 150 fold; expression of GCLM and HO-1 at 48 h (Nrf2 [2]; Beas-2B cells, 10 μM, 48 h): comparable to vehicle by 48 h; increase in the expression of GCLM (Nrf2 [2]; Beas-2B cells, 20 μM, 24 h): approximately 5 fold; increase in the expression of NQO1 (Nrf2 [2]; Beas-2B cells, 20 μM, 24 h): ~10 fold; Nrf2-regulated gene expression (GCLM, NQO1, HO1) (Nrf2 [2]; Beas-2B cells, 2.5, 5, 10, 20 μM, 24 h): significantly increased the Nrf2-regulated gene expression in a concentration-dependent manner; expression of GCLM, NQO1 and HO1 in the presence of NAC (Nrf2 [3]): potentially increase the expression of Nr2-regulated antioxidant genes in the presence of NAC; bone marrow cellularity (H&E staining) ([4]; 6.9 Gy TBI, day 7 and day 20, compared to vehicle): greater marrow cellularity; WBC, RBC and platelets on day 22 post-irradiation ([4]; 6.9 Gy TBI, oral treatment from 24 h after): significant increase in WBC, red blood cells (RBC) and platelets; white blood cells, neutrophils and lymphocytes post-irradiation ([4]; 6.9 Gy TBI, oral treatment from 24 h after, compared to vehicle): early increase in white blood cells (WBC), neutrophils and lymphocytes; hematopoietic reconstitution (CBC analysis, WBC) ([4]; 7.3 Gy TBI, treatment 24 hours after, 30 days): significant recovery of WBC; Nrf2 regulated antioxidants (NQO1, HO-1, GCLM) in BM-MNC, gut and lung (Nrf2 [5]): significantly elevated; duration of neutropenia [6]: significantly reduced the duration of neutropenia; allergen-induced asthma (airway inflammation and airway hyper-responsiveness) (OVA-induced asthma): protected the mice from allergen-induced asthma
